The CC50 is the concentration at which the toxic effect on the cells reaches its halfway point. Read a high CC50 as better tolerance by the cells. By IC50 is commonly meant the midpoint of a concentration-inhibition curve.

The values below come from PMC6069857, “Effects of novel HDAC inhibitors on urothelial carcinoma cells” (Clinical Epigenetics, 2018).

One data set relates to UM-UC-3-LV. As to the kind of experiment: MTT viability assay (CC50). It is filed as cell-based, human. The settings on record: UM-UC-3-LV (empty vector), 72 h. How it is done:
(§1) HDAC4 cDNA from the pcDNA-HDAC4-FLAG plasmid kindly provided by Tso-Pang Yao (Addgene plasmid # 30485) was cloned into the lentiviral vector puc2CL12IPwo using standard techniques, thereby creating the vector puc2CL12IPwo-HDAC4-FLAG (Additional file 1: Figure S1). Integrity of the HDAC4 coding sequence was verified by sequencing. Lentivirus production and cell transduction were performed as previously described. In brief, to produce replication-deficient lentiviruses, HEK-293T cells were transfected with helper plasmid expression construct (pCD/NL-BH [35]), envelope vector (pczVSV-G [36]), and the vector plasmids puc2CL12IPwo or puc2CL12IPwo-HDAC4-FLAG. Viral particles were harvested 48 h after transfection and used to transduce VM-CUB1 and UM-UC-3 cells using 8 μg/ml polybrene (Sigma Aldrich, St. Louis, MO). Twenty-four hours after transduction, the supernatant containing viral particles was removed and the transduced cells were selected with 4 (VM-CUB1) or 1 (UM-UC-3) μg/ml puromycin (Invitrogen, Carlsbad, CA) for 7 days. Stable overexpression of HDAC4 was confirmed by Western blot analysis of cells from several passages.
(§2) For the determination of cellular mean cytotoxic concentration (CC50), UCCs, non-malignant control cells, and HDAC4-overexpressing clones were seeded in a 96-well format and treated once with a range of defined concentrations of the HDAC inhibitors. After 72 h, viability was quantified by NAD(P)H-dependent 3-(4,5-dimethylthiazol-2-yl)-2,5-diphenyltetrazolium bromide dye reduction assay (MTT, Sigma Aldrich, St. Louis, MO). CC50 values were estimated from three independent experiments by non-linear regression analysis (four-parameter logistic equation) using Prism 4.0 (Graph Pad) or Origin 8.0 (Origin Lab, Northhampton, GB). For time-dependent proliferation experiments, viability of untreated or inhibitor-treated cells was measured after 24, 48, and 72 h.
For orientation: Tetrazolium dyes change colour on reduction, which living cells bring about.

The subject of the next data set is VM-CUB1-HDAC4. As to the kind of experiment: MTT viability assay (CC50). It is filed as cell-based, human. Particulars: VM-CUB-HDAC4 (HDAC4-overexpressing), 72 h. On the procedure:
as §1, §2

The subject of a further data set is UM-UC-3-HDAC4. As to the kind of experiment: MTT viability assay (CC50). In kind it is cell-based, human. Particulars: UM-UC-3-HDAC4 (HDAC4-overexpressing), 72 h. How it is done: as §1, §2
The next data set concerns VM-CUB1-LV. The data set is described as follows: MTT viability assay (CC50). In kind it is cell-based, human. Particulars: VM-CUB1-LV (empty vector), 72 h. How it is done: as §1, §2
Data set [1] deals with three UCCs (VM-CUB1, UM-UC-3, 639-V). As to the kind of experiment: qRT-PCR of TS and p21CIP1 mRNA. The settings on record: 19i 2 μM, 24 or 48 h, all three UCCs. In kind it is cell-based, human. How it is done:
Total cell RNA was isolated by the Qiagen RNeasy Mini Kit (Qiagen, Hilden, Germany) according to the manufacturer’s protocol, and cDNA was synthesized using QuantiTect Reverse Transcription Kit (Qiagen, Hilden, Germany) with an extended incubation time of 30 min at 42 °C as previously described. Target mRNA expression was measured by qRT-PCR with QuantiTect SYBR Green RT-PCR Kit (Qiagen, Hilden, Germany) on the LightCycler® 96 Real-Time PCR system with software version 1.1 (Roche Diagnostics, Rotkreuz, Switzerland). All used primers, comprising QuantiTect Primer assays (Qiagen, Hilden, Germany), self-designed target primers, and primers for the reference housekeeping gene TBP (TATA-box binding protein), are listed in Additional file 2: Table S1.
(In qPCR the cycle at which signal appears reflects the starting amount.)

Another data set has as its system UC cells. The data set is described as follows: Clonogenicity assay with Giemsa staining. It is filed as cell-based, human. The settings on record: 2 μM 19i for 48 h, replated. On the procedure:
Then, depending on the cell line, 500–1000 cells were seeded in 6-cm plates, and 10 to 15 days later, colonies were washed with PBS, fixed in methanol, and stained with Giemsa (Merck Millipore, Darmstadt, Germany).

The target of another data set is HDAC1 (Homo sapiens, UniProt Q13547). The data set is described as follows: In vitro fluorescence-based HDAC inhibition assay (Reaction Biology). The settings on record: read-out: IC50 HDAC1; experiment performed once.
HDAC1, sequence (Q13547 whole entry): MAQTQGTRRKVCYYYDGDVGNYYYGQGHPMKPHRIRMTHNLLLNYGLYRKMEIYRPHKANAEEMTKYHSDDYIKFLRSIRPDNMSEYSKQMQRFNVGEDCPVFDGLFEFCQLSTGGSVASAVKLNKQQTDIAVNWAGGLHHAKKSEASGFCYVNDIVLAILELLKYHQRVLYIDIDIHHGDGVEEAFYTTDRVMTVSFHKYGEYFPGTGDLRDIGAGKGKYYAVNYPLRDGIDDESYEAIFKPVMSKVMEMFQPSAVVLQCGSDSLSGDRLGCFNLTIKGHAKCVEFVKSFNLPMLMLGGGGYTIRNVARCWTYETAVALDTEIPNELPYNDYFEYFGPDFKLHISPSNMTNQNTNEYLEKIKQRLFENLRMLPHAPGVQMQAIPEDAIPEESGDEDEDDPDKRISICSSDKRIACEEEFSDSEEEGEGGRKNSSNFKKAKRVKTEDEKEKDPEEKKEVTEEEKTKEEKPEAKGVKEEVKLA
The next data set addresses HDAC8 (Homo sapiens, UniProt Q9BY41). The description is as above. The settings on record: read-out: IC50 HDAC8; experiment performed once.
For a further data set, the target named is HDAC10 (Homo sapiens, UniProt Q969S8). The data set is described as above. Particulars: read-out: IC50 HDAC10; experiment performed once.
HDAC10, sequence (Q969S8 whole entry): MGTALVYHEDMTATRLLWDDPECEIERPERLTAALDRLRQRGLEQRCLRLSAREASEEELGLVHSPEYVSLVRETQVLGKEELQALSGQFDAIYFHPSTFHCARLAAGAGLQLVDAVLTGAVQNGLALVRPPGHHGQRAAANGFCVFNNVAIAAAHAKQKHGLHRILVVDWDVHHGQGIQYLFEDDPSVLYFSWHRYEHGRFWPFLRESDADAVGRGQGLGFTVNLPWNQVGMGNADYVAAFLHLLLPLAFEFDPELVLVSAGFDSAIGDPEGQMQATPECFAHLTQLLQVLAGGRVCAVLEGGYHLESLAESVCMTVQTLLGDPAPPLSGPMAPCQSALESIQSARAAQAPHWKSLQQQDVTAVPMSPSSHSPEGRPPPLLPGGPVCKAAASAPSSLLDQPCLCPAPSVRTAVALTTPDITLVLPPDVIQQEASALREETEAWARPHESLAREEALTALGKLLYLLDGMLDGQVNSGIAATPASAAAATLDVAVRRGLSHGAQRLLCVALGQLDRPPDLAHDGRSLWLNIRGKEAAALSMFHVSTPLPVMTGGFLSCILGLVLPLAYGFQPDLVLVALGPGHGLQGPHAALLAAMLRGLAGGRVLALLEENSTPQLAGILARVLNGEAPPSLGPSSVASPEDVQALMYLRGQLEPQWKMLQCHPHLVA
In data set [2] the test system is UCCs VM-CUB1, UM-UC-3, and 639-V. The settings on record: 19i 2 μM, 24 and 48 h. An excerpt:
Caspase activity after inhibitor treatment was quantified by the Caspase-Glo 3/7 assay and normalized to cell viability measured by CellTiter-Glo® reagent (Promega, Mannheim, Germany) as previously described. Briefly, following exposure to inhibitors, defined aliquots of trypsinized cells were transferred to 96-well plates for viability and caspase-3/7 measurements according to the manufacturer’s protocol.

Data set [3] relates to UC cell lines (VM-CUB1, UM-UC-3, 639-V). As to the kind of experiment: MTT viability assay, UC cell lines taken together. It is filed as cell-based, human. The settings on record: across VM-CUB1, UM-UC-3, 639-V; MTT, 72 h. On the procedure: Further experiments were performed in VM-CUB1 and UM-UC-3 cells overexpressing HDAC4 (see below). Standard UCCs were obtained from the DSMZ (Braunschweig, Germany) and Dr. H.B. Grossmann HB (Houston, USA). For comparison, we investigated the spontaneously immortalized normal human bladder cell line HBLAK (provided by CELLnTEC, Bern, Switzerland) and the immortalized human embryonic kidney cell line HEK-293 (provided by Dr. V. Kolb-Bachofen, Duesseldorf, Germany). Cells were cultured and treated in DMEM GlutaMAX-I (Gibco, Darmstadt, Germany; UCCs and HEK-293) supplemented with 10% fetal calf serum (Biochrom, Berlin, Germany), except for HBLAK cultured in CnT-Prime Epithelial Culture Medium (CELLnTEC, Bern, Switzerland; HBLAK), at 37 °C and 5% CO2. […]
For the determination of cellular mean cytotoxic concentration (CC50), UCCs, non-malignant control cells, and HDAC4-overexpressing clones were seeded in a 96-well format and treated once with a range of defined concentrations of the HDAC inhibitors. After 72 h, viability was quantified by NAD(P)H-dependent 3-(4,5-dimethylthiazol-2-yl)-2,5-diphenyltetrazolium bromide dye reduction assay (MTT, Sigma Aldrich, St. Louis, MO). […] For time-dependent proliferation experiments, viability of untreated or inhibitor-treated cells was measured after 24, 48, and 72 h.

Another data set addresses HDAC2 (Homo sapiens, UniProt Q92769). The arrangement: purchased Reaction Biology Corp. (Malvern, PA). Particulars: previously reported; given for HDAC1/2 together; cited from earlier work.

HDAC8, sequence (Q9BY41 whole entry): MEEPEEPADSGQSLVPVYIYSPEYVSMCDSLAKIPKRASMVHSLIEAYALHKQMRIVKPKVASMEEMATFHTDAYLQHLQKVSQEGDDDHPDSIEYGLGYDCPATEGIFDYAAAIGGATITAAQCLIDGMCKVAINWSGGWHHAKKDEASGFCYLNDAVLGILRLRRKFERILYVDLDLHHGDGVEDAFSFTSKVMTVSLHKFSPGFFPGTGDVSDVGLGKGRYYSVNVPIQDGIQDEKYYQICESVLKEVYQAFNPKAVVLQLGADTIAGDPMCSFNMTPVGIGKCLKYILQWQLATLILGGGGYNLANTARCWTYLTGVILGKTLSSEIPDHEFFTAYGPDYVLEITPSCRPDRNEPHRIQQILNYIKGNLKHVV
HDAC2, sequence (Q92769 whole entry): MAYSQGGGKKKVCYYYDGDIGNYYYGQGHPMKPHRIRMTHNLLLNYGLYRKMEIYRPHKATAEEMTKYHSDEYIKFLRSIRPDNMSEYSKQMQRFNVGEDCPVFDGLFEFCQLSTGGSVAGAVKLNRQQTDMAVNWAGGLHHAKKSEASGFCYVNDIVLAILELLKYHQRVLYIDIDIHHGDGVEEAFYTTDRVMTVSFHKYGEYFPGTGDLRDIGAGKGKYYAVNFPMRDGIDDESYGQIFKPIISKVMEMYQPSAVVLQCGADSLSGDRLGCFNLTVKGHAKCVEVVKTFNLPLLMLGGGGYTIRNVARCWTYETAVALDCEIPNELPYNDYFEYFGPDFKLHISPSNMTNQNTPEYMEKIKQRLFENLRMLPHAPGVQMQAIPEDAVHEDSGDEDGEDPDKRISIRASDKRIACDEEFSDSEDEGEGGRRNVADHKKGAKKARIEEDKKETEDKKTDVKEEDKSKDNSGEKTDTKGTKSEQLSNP

Consider `Cc1cc(C)cc(C(=O)NOCCCCCC(=O)NO)c1` [19i], for which the CC50 with UM-UC-3-LV was 790 nM; in the data set with VM-CUB1-HDAC4, 630 nM; in the data set with UM-UC-3-HDAC4, 740 nM; in the data set on VM-CUB1-LV, 950 nM; in data set [3] it was approximately 1000 nM. Further, in data set [1], the “p21CIP1 mRNA expression” value is “increased”. Besides, the “thymidylate synthase (TS) mRNA expression” value in data set [1] is “decreased”. For the same compound, the clonogenic potential result with UC cells is on record as “impaired the clonogenic potential”. Also, the half-inhibitory concentration (IC50) on HDAC1 was found to be 315 nM; at HDAC8, 2840 nM; on HDAC10, 491 nM. In addition, in data set [2], the “caspase 3/7 activity” value is recorded as “significant, albeit moderately increased”. The “in vitro IC50 HDAC2” value on HDAC2 is reported as “sub-micromolar”.
